Assay results reported in patent publication US8192962B2, “Processes for detecting toxic substances” (Daikin Industries, Ltd., priority 2001, dated 2012).

System: Unknown protein yeast genes
Assay: DNA chip mRNA expression in yeast, unknown protein yeast genes (Table 1)
Format: cell-based, Saccharomyces cerevisiae S288C
Protocol: Yeast (Saccharomyces cerevisiae S288C (α SUC2mal mel gap2 CUP1)) were incubated at 25° C. on YPD medium (yeast extract 1%, polypepton 2%, glucose 2%). One of toxic chemical substances was added to the cells at logarithmic growth phase, and the cells were further incubated for two hours. Cells were cultured without any chemical substance in the same condition, and were used as control. Concentrations of the chemical substances were defined to inhibit the growth of the yeast but not lead to death.
After completion of the incubation, the culture was centrifuged to collect the cells. To the cells, sodium acetate buffer (50 mM sodium acetate, 10 mM EDTA, 1% SDS) was added, and the mixture was shaken at 65° C. for five minutes, followed by returning to room temperature, and obtaining the supernatant, of which the procedures were repeated two times. To the supernatant, ½ amount of a solution of phenol/chloroform was added, and the mixture was centrifuged to give a supernatant, which was added with an equal amount of chloroform, and the mixture was centrifuged to give a supernatant. To the supernatant, an equal amount of isopropanol containing 0.3 M sodium acetate was added, and the mixture was allowed to stand at room temperature for 30 minutes, after which the mixture was centrifuged to give a sediment of the whole RNAs. Seventy % ethanol was added to the sediment, and the mixture was again centrifuged to give a sediment, which was then dried and dissolved in water. mRNA was isolated from the whole RNAs as followings. In view of the fact that a poly A chain is attached to the 3′ terminus of mRNA, a polynucleotide having a poly T structure which was immobilized on the surface of latex beads was used to trap the mRNA, and then the mRNA was washed and eluted with spine column (Oligotex-dT30<Super>mRNA Purification Kit, Takara). Reverse transcription of the mRNA was conducted with a reverse transcriptase (Super Script II Reverse Transcriptase; catalogue No. 18064-014, GibcoBRL) using fluorescence-labeled nucleotides to give cDNAs that were introduced with Cy3-dUTP or Cy5-dUTP during the reverse transcription.
The labeled cDNAs were dissolved in TE buffer (10mM Tris-HCl/1 mM EDTA, pH8.0), and the solution was dropped on the DNA chip containing the whole genes of yeast (DNA Chip Research Inc. Japan) so that the cDNAs were hybridized on the DNA chip at 65° C. for over 12 hours. The fluoresces intensity of the DNA chip was read with a scanner, and the ratio relative to the fluorescence intensity resulting from the absence of chemical substance was estimated as the following, which is shown in Tables 1 to 9: […]

## Na2As [(1)]
Yeast gene YAL053W, incubated two hours with chemical substance
  The level of expressed mRNA in the presence of chemical substance/The level of expressed mRNA in the absence of chemical substance: 0.9
Yeast gene YBL048W
  The level of expressed mRNA in the presence of chemical substance/The level of expressed mRNA in the absence of chemical substance: 2.0
Yeast gene YBL107C
  The level of expressed mRNA in the presence of chemical substance/The level of expressed mRNA in the absence of chemical substance: 1.4
Yeast gene YDL072C, incubated two hours with chemical substance
  The level of expressed mRNA in the presence of chemical substance/The level of expressed mRNA in the absence of chemical substance: 1.3
Yeast gene YDL204W, incubated two hours with chemical substance
  The level of expressed mRNA in the presence of chemical substance/The level of expressed mRNA in the absence of chemical substance: 1.4
Yeast gene YDL222C, incubated two hours with chemical substance
  The level of expressed mRNA in the presence of chemical substance/The level of expressed mRNA in the absence of chemical substance: 0.9
Yeast gene YDR330W, incubated two hours with chemical substance
  The level of expressed mRNA in the presence of chemical substance/The level of expressed mRNA in the absence of chemical substance: 0.8
Yeast gene YDR411C, incubated two hours with chemical substance
  The level of expressed mRNA in the presence of chemical substance/The level of expressed mRNA in the absence of chemical substance: 0.9
Yeast gene YDR511W, incubated two hours with chemical substance
  The level of expressed mRNA in the presence of chemical substance/The level of expressed mRNA in the absence of chemical substance: 1.3
Yeast gene YDR545W, incubated two hours with chemical substance
  The level of expressed mRNA in the presence of chemical substance/The level of expressed mRNA in the absence of chemical substance: 0.6
Yeast gene YEL001C, incubated two hours with chemical substance
  The level of expressed mRNA in the presence of chemical substance/The level of expressed mRNA in the absence of chemical substance: 1.0
Yeast gene YER004W, incubated two hours with chemical substance
  The level of expressed mRNA in the presence of chemical substance/The level of expressed mRNA in the absence of chemical substance: 1.0
Yeast gene YER035W, incubated two hours with chemical substance
  The level of expressed mRNA in the presence of chemical substance/The level of expressed mRNA in the absence of chemical substance: 1.4
Yeast gene YER079W, incubated two hours with chemical substance
  The level of expressed mRNA in the presence of chemical substance/The level of expressed mRNA in the absence of chemical substance: 1.1
Yeast gene YER106W, incubated two hours with chemical substance
  The level of expressed mRNA in the presence of chemical substance/The level of expressed mRNA in the absence of chemical substance: 1.3
Yeast gene YER158C, incubated two hours with chemical substance
  The level of expressed mRNA in the presence of chemical substance/The level of expressed mRNA in the absence of chemical substance: 1.2
Yeast gene YER163C, incubated two hours with chemical substance
  The level of expressed mRNA in the presence of chemical substance/The level of expressed mRNA in the absence of chemical substance: 1.1
Yeast gene YER175C, incubated two hours with chemical substance
  The level of expressed mRNA in the presence of chemical substance/The level of expressed mRNA in the absence of chemical substance: 0.9
Yeast gene YFL006W, incubated two hours with chemical substance
  The level of expressed mRNA in the presence of chemical substance/The level of expressed mRNA in the absence of chemical substance: 0.8
Yeast gene YFL010C, incubated two hours with chemical substance
  The level of expressed mRNA in the presence of chemical substance/The level of expressed mRNA in the absence of chemical substance: 1.0
Yeast gene YFL024C
  The level of expressed mRNA in the presence of chemical substance/The level of expressed mRNA in the absence of chemical substance: 1.0
Yeast gene YFL032W, incubated two hours with chemical substance
  The level of expressed mRNA in the presence of chemical substance/The level of expressed mRNA in the absence of chemical substance: 0.4
Yeast gene YGL037C, incubated two hours with chemical substance
  The level of expressed mRNA in the presence of chemical substance/The level of expressed mRNA in the absence of chemical substance: 1.5
Yeast gene YGL047W, incubated two hours with chemical substance
  The level of expressed mRNA in the presence of chemical substance/The level of expressed mRNA in the absence of chemical substance: 1.0
Yeast gene YGL053W, incubated two hours with chemical substance
  The level of expressed mRNA in the presence of chemical substance/The level of expressed mRNA in the absence of chemical substance: 1.5
Yeast gene YGL121C
  The level of expressed mRNA in the presence of chemical substance/The level of expressed mRNA in the absence of chemical substance: 2.6
Yeast gene YGL199C, incubated two hours with chemical substance
  The level of expressed mRNA in the presence of chemical substance/The level of expressed mRNA in the absence of chemical substance: 1.1
Yeast gene YGR101W, incubated two hours with chemical substance
  The level of expressed mRNA in the presence of chemical substance/The level of expressed mRNA in the absence of chemical substance: 1.0
Yeast gene YGR110W
  The level of expressed mRNA in the presence of chemical substance/The level of expressed mRNA in the absence of chemical substance: 1.6
Yeast gene YGR130C, incubated two hours with chemical substance
  The level of expressed mRNA in the presence of chemical substance/The level of expressed mRNA in the absence of chemical substance: 0.9
Yeast gene YGR154C, incubated two hours with chemical substance
  The level of expressed mRNA in the presence of chemical substance/The level of expressed mRNA in the absence of chemical substance: 1.8
Yeast gene YGR221C, incubated two hours with chemical substance
  The level of expressed mRNA in the presence of chemical substance/The level of expressed mRNA in the absence of chemical substance: 0.9
Yeast gene YHR138C, incubated two hours with chemical substance
  The level of expressed mRNA in the presence of chemical substance/The level of expressed mRNA in the absence of chemical substance: 2.8
Yeast gene YHR199C, incubated two hours with chemical substance
  The level of expressed mRNA in the presence of chemical substance/The level of expressed mRNA in the absence of chemical substance: 1.9
Yeast gene YIL023C, incubated two hours with chemical substance
  The level of expressed mRNA in the presence of chemical substance/The level of expressed mRNA in the absence of chemical substance: 1.1
Yeast gene YIL041W, incubated two hours with chemical substance
  The level of expressed mRNA in the presence of chemical substance/The level of expressed mRNA in the absence of chemical substance: 1.0
Yeast gene YIL087C, incubated two hours with chemical substance
  The level of expressed mRNA in the presence of chemical substance/The level of expressed mRNA in the absence of chemical substance: 1.3
Yeast gene YJL057C, incubated two hours with chemical substance
  The level of expressed mRNA in the presence of chemical substance/The level of expressed mRNA in the absence of chemical substance: 1.5
Yeast gene YJL066C, incubated two hours with chemical substance
  The level of expressed mRNA in the presence of chemical substance/The level of expressed mRNA in the absence of chemical substance: 0.9
Yeast gene YJL082W, incubated two hours with chemical substance
  The level of expressed mRNA in the presence of chemical substance/The level of expressed mRNA in the absence of chemical substance: 1.4
Yeast gene YJL151C, incubated two hours with chemical substance
  The level of expressed mRNA in the presence of chemical substance/The level of expressed mRNA in the absence of chemical substance: 1.0
Yeast gene YJL152W, incubated two hours with chemical substance
  The level of expressed mRNA in the presence of chemical substance/The level of expressed mRNA in the absence of chemical substance: 0.9
Yeast gene YJL161W, incubated two hours with chemical substance
  The level of expressed mRNA in the presence of chemical substance/The level of expressed mRNA in the absence of chemical substance: 1.7
Yeast gene YJL171C, incubated two hours with chemical substance
  The level of expressed mRNA in the presence of chemical substance/The level of expressed mRNA in the absence of chemical substance: 2.3
Yeast gene YJR008W, incubated two hours with chemical substance
  The level of expressed mRNA in the presence of chemical substance/The level of expressed mRNA in the absence of chemical substance: 1.6
Yeast gene YJR054W, incubated two hours with chemical substance
  The level of expressed mRNA in the presence of chemical substance/The level of expressed mRNA in the absence of chemical substance: 0.8
Yeast gene YKL071W
  The level of expressed mRNA in the presence of chemical substance/The level of expressed mRNA in the absence of chemical substance: 8.3
Yeast gene YKL086W, incubated two hours with chemical substance
  The level of expressed mRNA in the presence of chemical substance/The level of expressed mRNA in the absence of chemical substance: 1.0
Yeast gene YKL151C, incubated two hours with chemical substance
  The level of expressed mRNA in the presence of chemical substance/The level of expressed mRNA in the absence of chemical substance: 1.2
Yeast gene YKL153W, incubated two hours with chemical substance
  The level of expressed mRNA in the presence of chemical substance/The level of expressed mRNA in the absence of chemical substance: 1.1
